Assay results as given in publication PMC4111603 (PLoS ONE, 2014).
Read-outs that look alike come from different tables or passages of the source.

What was measured:
[1] = tested on: fatty acid amide hydrolase (FAAH); settings: cited from earlier work
[2] = tested on: COX-1; parameters: method as in PMID 24120370; settings: read-out: IC50, AA oxygenation by COX-1; cited from earlier work
[3] = tested on: COX-2; settings: read-out: IC50, AA oxygenation by COX-2; cited from earlier work
[4] = target: T1, rat brain FAAH (Rattus norvegicus, UniProt P97612); experiment: FAAH hydrolysis of [3H]AEA in rat brain homogenates; format: biochemical; settings: 0.5 µM AEA; for inhibition at 1000 µM: read-out: % inhibition of [3H]AEA hydrolysis @ 1000 µM, 1000 µM compound
T1 construct: FAAH activity was quantified by measuring hydrolysis of tritium labelled AEA in rat brain homogenates; from tissue; host or cells: rat brain (minus cerebella), Wistar or Sprague-Dawley, washed membrane pellets
T1 sequence (P97612 1-579): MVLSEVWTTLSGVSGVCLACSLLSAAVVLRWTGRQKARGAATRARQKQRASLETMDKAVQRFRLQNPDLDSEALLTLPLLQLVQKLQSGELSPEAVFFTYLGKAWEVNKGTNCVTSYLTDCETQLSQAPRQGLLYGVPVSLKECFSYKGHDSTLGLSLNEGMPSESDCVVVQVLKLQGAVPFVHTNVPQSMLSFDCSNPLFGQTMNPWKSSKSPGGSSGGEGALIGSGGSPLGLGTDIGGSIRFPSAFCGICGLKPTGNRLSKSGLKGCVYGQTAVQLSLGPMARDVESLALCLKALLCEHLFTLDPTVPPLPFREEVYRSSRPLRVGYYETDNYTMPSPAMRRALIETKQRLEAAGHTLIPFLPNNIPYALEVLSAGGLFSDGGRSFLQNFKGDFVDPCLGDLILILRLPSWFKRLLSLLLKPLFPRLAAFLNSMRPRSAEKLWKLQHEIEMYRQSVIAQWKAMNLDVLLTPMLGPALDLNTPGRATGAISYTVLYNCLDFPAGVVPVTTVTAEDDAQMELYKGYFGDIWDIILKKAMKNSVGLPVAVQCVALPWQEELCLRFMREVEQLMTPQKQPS
Experimental: Brains (minus cerebella) from adult Wistar or Sprague-Dawley stored at −80°C were thawed, weighed and homogenized in cold buffer (20 mM HEPES, 1 mM MgCl2 pH 7.0). Homogenates were centrifuged at 35,000 g at 4°C for 20 min and the pellet was resuspended in homogenization buffer (repeated twice) before being incubated at 37°C for 15 min to degrade any endogenous substrate that might interfere with the FAAH assay. Following centrifugation, the pellets were resuspended in cold buffer (50 mM Tris-HCl, 1 mM EDTA, 3 mM MgCl2, pH 7.4). The protein concentration of each homogenates was determined according to the Bradford assay after which the samples were frozen in aliquots at −80°C until used for FAAH assay. Ethical permission for the animal experiments was obtained from the local animal research ethical committee (Umeå Ethical Committee for Animal Research, Umeå, Sweden).
The assay was performed according to Boldrup et al.. Homogenates (1 µg protein per assay) diluted in 10 mM Tris-HCl, 1 mM EDTA, pH 7.4 or pH 5.1 were mixed with test substance dissolved in DMSO (total concentration in assay 5%) at an ambient temperature of 4°C. Reactions were initiated by addition of AEA-[^3H] (assay concentration 0.5 µM) in 10 mM Tris-HCl, 1 mM EDTA, pH 7.4 containing 10 mg ml^−1 fatty acid-free bovine serum and incubation at 37°C which was allowed to proceed for 10 min. […] Blank samples contained buffer instead of homogenate and DMSO (5%). The assay volume of each sample was 200 µl. The pH values given in the text were determined by measurement at 37°C of scaled-up mixtures of homogenization and assay buffers. The reaction was terminated by addition of 400 µl activated charcoal (80 µl activated charcoal +320 µl 0.5 M HCl) and placement of samples on ice. Samples were kept in room temperature for 45–60 min before being centrifuged at 2500 rpm for 10 min. Aliquots (200 µl) of the supernatant was analyzed for tritium content by liquid scintillation with quench correction.
(§1) FAAH inhibition was calculated using log(inhibitor) vs. response with variable slope (four parameters) algorithm in the GraphPad Prism computer program (GraphPad Software Inc., San Diego, CA. USA). […] The two curves were compared by Akaike’s informative criteria and the best fit was chosen. Initial COX activities were calculated as the change in oxygen tension between 10 and 30 seconds after addition of enzyme.

[5] = tested on: COX-2; settings: read-out: IC50, 2-AG oxygenation; cited from earlier work
[6] = cited from earlier work
[7] = target: T2, Ovine COX-1 (Ovis aries, UniProt P05979); experiment: COX-1 oxygenation of arachidonic acid, oxygen electrode; format: biochemical; settings: for COX-1 activity (% of control): 10 µM AA, initial activity 10-30 s, mean ± s.e.m., n = 3; for inhibition at 300 µM: 300 µM compound, read-out: inhibition of COX-1-catalysed oxygenation of arachidonic acid
T2 construct: purchased Cayman Chemical Co. 60100
T2 sequence (P05979 25-600): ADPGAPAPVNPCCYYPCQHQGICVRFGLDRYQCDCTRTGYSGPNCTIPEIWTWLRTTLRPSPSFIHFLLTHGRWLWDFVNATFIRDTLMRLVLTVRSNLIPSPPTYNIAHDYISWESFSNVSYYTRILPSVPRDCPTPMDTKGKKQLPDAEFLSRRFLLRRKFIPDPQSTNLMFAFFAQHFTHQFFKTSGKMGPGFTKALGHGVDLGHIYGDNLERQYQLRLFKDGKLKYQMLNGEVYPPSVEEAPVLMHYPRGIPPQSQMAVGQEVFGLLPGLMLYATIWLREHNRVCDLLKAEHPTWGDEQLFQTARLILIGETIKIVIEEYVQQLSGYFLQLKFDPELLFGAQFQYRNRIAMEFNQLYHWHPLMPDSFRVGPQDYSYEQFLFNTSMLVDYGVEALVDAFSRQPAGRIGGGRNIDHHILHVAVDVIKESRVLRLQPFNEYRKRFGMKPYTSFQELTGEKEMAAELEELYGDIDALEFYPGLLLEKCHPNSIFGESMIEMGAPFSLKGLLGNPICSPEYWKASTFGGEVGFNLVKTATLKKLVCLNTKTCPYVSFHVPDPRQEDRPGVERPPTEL
Experimental: (§2) The assay was performed according to Meade et al. with minor modifications using an oxygen electrode chamber with integral stirring (Oxygraph System, Hansatech Instruments, King’s Lynn, U.K.). The electrode was calibrated to ambient temperature and air pressure. Samples were prepared in 0.1 M Tris-HCl buffer pH 7.4 containing 1 µM haematin, 2 mM phenol, 5 mM EDTA, 10 µM substrate (AA or 2-AG) (final assay volume was 2 ml). After addition of test substance dissolved in DMSO (final assay concentration 1%) a baseline was established for 5 min before initiation of reaction by addition of 200 units COX-1 or COX-2. Change in oxygen consumption was monitored for approximately 5 min.
as §1

[8] = cited from earlier work; for urinary recovery: 24 h after administration of 400 mg of ibuprofen
[9] = target: T3, human recombinant COX-2 (Homo sapiens, UniProt P35354); experiment: COX-2 oxygenation of arachidonic acid, oxygen electrode; format: biochemical; settings: for COX-2 activity (% of control): substrate AA 10 µM, initial activity 10-30 s, n = 3
T3 construct: purchased Cayman Chemical Co. 60122
T3 sequence (P35354 18-604): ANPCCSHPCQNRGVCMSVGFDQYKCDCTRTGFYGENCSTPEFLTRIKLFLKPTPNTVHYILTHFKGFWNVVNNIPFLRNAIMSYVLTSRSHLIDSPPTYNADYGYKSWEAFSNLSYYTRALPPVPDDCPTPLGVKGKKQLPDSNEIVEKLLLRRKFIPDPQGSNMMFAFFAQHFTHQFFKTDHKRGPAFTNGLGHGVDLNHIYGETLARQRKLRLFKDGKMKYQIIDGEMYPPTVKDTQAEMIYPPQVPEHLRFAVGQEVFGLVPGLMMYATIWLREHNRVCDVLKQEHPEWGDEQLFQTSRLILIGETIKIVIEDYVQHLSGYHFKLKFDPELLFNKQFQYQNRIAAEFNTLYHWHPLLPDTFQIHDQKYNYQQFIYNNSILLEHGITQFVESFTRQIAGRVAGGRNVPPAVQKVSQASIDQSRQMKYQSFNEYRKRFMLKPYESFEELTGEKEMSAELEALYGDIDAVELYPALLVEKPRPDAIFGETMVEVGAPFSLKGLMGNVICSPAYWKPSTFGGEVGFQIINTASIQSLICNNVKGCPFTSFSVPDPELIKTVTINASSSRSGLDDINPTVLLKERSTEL
Experimental: as §2, §1

[10] = target: T3, human recombinant COX-2; experiment: COX-2 oxygenation of 2-AG, oxygen electrode; format: biochemical; settings: for COX-2 activity (% of control): substrate 2-AG 10 µM, initial activity 10-30 s, n = 3
Experimental: as §2, §1

[11] = tested on: µ-opoid receptors; settings: cited from earlier work
[12] = tested on: FAAH; parameters: method as in PMID 16997568; settings: pH 6 and 8; rat brain homogenates; cited from earlier work
[13] = tested on: NAAA; parameters: method as in PMID 16154384; settings: cited from earlier work
[14] = pH 6.0, read-out: IC50, inhibition of [3H]AEA hydrolysis (converted)
[15] = pH 6.0, read-out: pI50, inhibition of [3H]AEA hydrolysis (converted)

Cc1cccnc1NC(=O)C(C)c1ccc(CC(C)C)cc1 (stereo not drawn)
potency as FAAH inhibitor at pH 6 versus pH 8 [1]: slightly less potent inhibitor of FAAH at pH 6 than at pH 8

CC(C(=O)O)c1ccc(-c2ccccc2)c(F)c1 (racemic) [Flurbiprofen, (±)-2-flouro-α-methyl(1,1′-biphenyl)-4-acetic acid, reference compound]
IC50 [4, 14]: 28 µM
IC50 [4, 15]: 27.5 µM
IC50 ([4]; pH 7.3, read-out: IC50, inhibition of [3H]AEA hydrolysis (converted)): 51 µM
IC50 ([4]; pH 7.3, read-out: pI50, inhibition of [3H]AEA hydrolysis (converted)): 51.3 µM
inhibition of COX-1 ([7]; 30 µM compound): Complete inhibition
share of the dose recovered in the urine ([8]; flurbiprofen 50 mg a day for 10 consecutive days): 23%

CC(C)Cc1ccc(C(C)C(=O)O)cc1 (racemic) [Ibuprofen, (±)-2-(4-Isobutylphenyl)propanoic acid]
peak plasma concentration ([6]; 200 mg single doses of two different ibuprofen preparations): 110 to 150 µM
urinary recovery [8]: 11%
IC50 ([1]; read-out: potency, inhibition of AEA hydrolysis by FAAH): 270 µM

CC(C(=O)O)c1ccc(C(O)C(C)C)cc1 (stereo not drawn) [1′-OH-Ibuprofen, 2-[4-(1-hydroxy-2-methylpropyl)phenyl]propionic acid]
COX-2 activity (% of control) ([9]; 100 µM NSAID): 91±8 % of control
COX-2 activity (% of control) ([9]; 300 µM NSAID): 59±13 % of control
IC50 [4, 14]: 340 µM
IC50 [4, 15]: 339 µM
inhibition at 1000 µM ([4]; pH 7.3): 47 ± 0.8%
COX-2 activity (% of control) ([10]; 100 µM NSAID): 103±22 % of control
COX-2 activity (% of control) ([10]; 300 µM NSAID): 108±15 % of control
COX-1 activity (% of control) ([7]; 100 µM NSAID): 112±21 % of control
COX-1 activity (% of control) ([7]; 300 µM NSAID): 81±21 % of control
inhibition at 300 µM [7]: 19%
COX-1 activity (% of control) ([7]; 1000 µM NSAID): 102±18 % of control

CN1CC[C@]23c4c5ccc(O)c4O[C@H]2[C@@H](O[C@@H]2O[C@H](C(=O)O)[C@@H](O)[C@H](O)[C@H]2O)C=C[C@H]3[C@H]1C5 [6-glucuronide metabolite of morphine]
potency relative to parent drug (morphine) [11]: 2–4 times

CC(Cc1ccc(C(C)C(=O)O)cc1)C(=O)O (stereo not drawn) [Carboxyibuprofen, 2-[4-(2-carboxypropyl)phenyl]propionic acid]
effect on rate of oxygenation of AA ([9]; 10 µM compound, Fig. S2, preliminary, two experiments): appeared to increase the rate of oxygenation
COX-2 activity (% of control) ([9]; 100 µM NSAID): 132±16 % of control
COX-2 activity (% of control) ([9]; 300 µM NSAID): 139±41 % of control
IC50 [4, 14]: 410 µM
IC50 [4, 15]: 417 µM
inhibition at 1000 µM ([4]; pH 7.3): 31 ± 4%
COX-2 activity (% of control) ([10]; 100 µM NSAID): 105±19 % of control
COX-2 activity (% of control) ([10]; 300 µM NSAID): 132±17 % of control
effect on rate of oxygenation of 2-AG ([10]; 300 µM compound, Fig. S1): appeared to increase the rate of oxygenation
inhibition at 300 µM [7]: 4%
urinary recovery [8]: 40%

NC(=O)c1cccc(-c2cccc(OC(=O)NC3CCCCC3)c2)c1 [URB597]
inhibition of AEA hydrolysis [12]: completely inhibits
activity towards NAAA [13]: lacks activity
